Experimental data published in patent US12022844B2, “Nutritional composition, food/drink composition using nutritional composition, and modified milk powder using nutritional composition” (priority 2018, dated 2024).

Columns and labels:
Type in all cases: cell-based
[1] = system: Bifidobacterium adolescentis ATCC15703; assay: Single bacterial culturing with HMO as sugar source, OD650; conditions: ATCC 15703^T, sugar source 2%, 8 h, Table 6
Procedure: (§1) A10% solution of glucose (manufactured by Nakarai Tesque Inc.), and 2′-FL ((≥95%) Funakoshi, available from sigma), and LNnT (manufactured by ELICITYL) as examples of HMOs was prepared with ion exchanged water, and was subjected to sterile filtration using Millex-GV (SLGV033RS).
(§2) Lactobacilli MRS Broth (BD) (0.05% L-Cysteine Hydrochloride for Bacteria of the genus Bifidobacterium) was added to strains of Table 1 below (bacteria belonging to Bifidobacterium bifidum) and Table 2 below. After a sterilization treatment, 3% of the bacterial solution was inoculated, and anaerobically cultured (pre-pre cultured) at 37° C. for 16 h.
(§3) The following day, 1% glucose was added to a modified BL agar medium (“Studies on Bifidobacteria” by Tomotari Mitsuoka, p. 306, Japan Bifidus Foundation, issued in 1994) noted in Table 3, for preparation. After a sterilization treatment, 3% of the pre-pre cultured bacterial solution was inoculated, and anaerobically pre-cultured (pre-cultured) at 37° C. for 12 h.
(§4) The pre-cultured bacterial solution was collected and washed once with a sterile physiological saline solution. Then, mass-up was performed to an equal volume with the modified BL agar medium (“Studies on Bifidobacteria” by Tomotari Mitsuoka, p. 306, Japan Bifidus Foundation, issued in 1994) noted in Table 3 to prepare a suspended bacterial solution.
(§5) The modified BL agar medium (“Studies on Bifidobacteria” by Tomotari Mitsuoka, p. 306, Japan Bifidus Foundation, issued in 1994) noted in Table 3 was prepared at a capacity of 60%, and was subjected to an autoclave sterilization treatment. Then, 40% of each sugar solution prepared in (1) was aseptically added so as to prepare a medium with a sugar concentration of 4%.
(§6) The medium prepared in the above (3) was dispensed at a capacity that is half the capacity for culturing in a 96-well plate, and the bacterial solution prepared in the above (2) was dispensed at a remaining half capacity such that the bacterial solution had 6%. Then, a final sugar concentration was set to 2%. The plate into which the bacterial solution was dispensed was anaerobically cultured at 37° C. for 8 h.
(§7) OD650 was measured from each well in the plates in the above (4) and the above (5) before (0 h) culturing and after (8 h) culturing, by MICROPLATE READER SH-9000 (manufactured by CORONA ELECTRIC). After turbidity measurement, microbial cells were collected, and DNA extraction was performed. After the DNA extraction, the number of proliferating bacteria of Bifidobacteria/lactobacilli was analyzed by using the bacterial species-specific primer noted in Table 4, by a quantitative PCR method (see “Structural analysis of intestinal flora”—analysis of bacterial flora in human feces using quantitative PCR—by Kouichi Watanabe, Enterobacteriological journal, 20:35-42, 2006).
(§8) Regarding strains in Table 2, each strain was cultured as a single bacterium by 2′-FL or LNnT (HMOs) as a sugar source, and OD650 was measured. The results for 2′-FL are noted in Table 6 below, and the results for LNnT are noted in Table 7 below.

[2] = system: Bifidobacterium animalis subsp lactis DSM10140; assay: as above; conditions: DSM 101407, sugar source 2%, 8 h, Table 6
Procedure: as §1, §2, §3, §4, §5, §6, §7, §8

[3] = system: Bifidobacterium breve ATCC15700; assay: as above; conditions: sugar source 2%, 8 h, Table 6
Procedure: as §1, §2, §3, §4, §5, §6, §7, §8

[4] = system: Bifidobacterium longum subsp infantis ATCC15697; assay: as above; conditions: ATCC 156971, sugar source 2%, 8 h, Table 6
Procedure: as §1, §2, §3, §4, §5, §6, §7, §8

[5] = system: Bifidobacterium longum subsp longum ATCC15707; assay: as above; conditions: ATCC 15707^T, sugar source 2%, 8 h, Table 6
Procedure: as §1, §2, §3, §4, §5, §6, §7, §8

[6] = system: Bifidobacterium pseudolongum ATCC25526; assay: as above; conditions: ATCC 25526^T, sugar source 2%, 8 h, Table 6
Procedure: as §1, §2, §3, §4, §5, §6, §7, §8

[7] = system: Lactobacillus rhamnosus ATCC7469; assay: as above; conditions: ATCC 7469^T, sugar source 2%, 8 h, Table 6
Procedure: as §1, §2, §3, §4, §5, §6, §7, §8

[8] = system: Bifidobacterium longum subspecies longum BB536; assay: Mix-culturing with Bifidobacterium bifidum by HMO as sugar source, quantitative PCR; conditions: for Proliferation rate (number of bacteria after mix-culturing for 8 h/number of bacteria after single bacterial culturing): BB536 mix-cultured with Bifidobacterium bifidum (NITE BP-02429), sugar source 2%, Table 8; for Proliferation rate of BB536 (mix-cultured bacteria after 8 h/single bacterial culturing 8 h): Table 9; for proliferation of BB536 through mix-culturing with bacteria belonging to Bifidobacterium bifidum: summary of Table 9
Procedure: as §1, §2, §3, §4, §5
(§9) The medium prepared in the above (3) was dispensed at a capacity that is half the capacity for aseptic culturing in a 96-well plate, and each of the bacterial solutions of strains of bacteria belonging to Bifidobacterium bifidum in Table 1 and probiotics having a low ability to assimilate human milk oligosaccharides in Table 2, which was prepared in the above (2), was dispensed at a remaining […] capacity into the medium prepared in the above (3) such that the bacterial solution had 12%. Then, a final sugar concentration was set to 2%. The plate into which the bacterial solution was dispensed was anaerobically cultured at 37° C. for 8 h.
as §7
(§10) It was decided to culture Bifidobacterium bifidum (NITE BP-02429) in which availability of 2′-FL or LNnT was found as described above, in combination with strains in Table 2, which cannot use 2′-FL or LNnT. Bifidobacterium bifidum (NITE BP-02429) and the strains in Table 2, which cannot use 2′-FL or LNnT, were mix-cultured by 2′-FL or LNnT as a sugar source, and after culturing for 8 h, the proliferation rate of the number of bacteria of each strain (proliferation rate=the number of bacteria after mix-culturing for 8 h/the number of bacteria after single bacterial culturing) was measured by a quantitative PCR method using each strain-specific oligonucleotide primer noted in Table 4, for the strain in Table 2.
Seven strains of Bifidobacterium bifidum in Table 1 and Bifidobacterium longum subspecies longum BB536 which cannot use 2′-FL or LNnT were mix-cultured by 2′-FL or LNnT as a sugar source. […]

[9] = system: Lactobacillus plantarum ATCC14917; assay: as above; conditions: ATCC 14917^T mix-cultured with Bifidobacterium bifidum (NITE BP-02429), sugar source 2%, Table 8
Procedure: as §1, §2, §3, §4, §5, §9, §7, §10

[10] = system: Lactobacillus rhamnosus ATCC7469; assay: as above; conditions: ATCC 7469^T mix-cultured with Bifidobacterium bifidum (NITE BP-02429), sugar source 2%, Table 8
Procedure: as §1, §2, §3, §4, §5, §9, §7, §10

[11] = system: Bifidobacterium animalis subsp lactis MCC-525; assay: Single bacterial culturing with HMO as sugar source, OD650; conditions: sugar source 2%, 8 h, Table 7
Procedure: as §1, §2, §3, §4, §5, §6, §7, §8

[12] = system: Bifidobacterium longum subsp longum BB536; assay: as above; conditions: sugar source 2%, 8 h, Table 7
Procedure: as §1, §2, §3, §4, §5, §6, §7, §8

[13] = mix-cultured with Bifidobacterium bifidum ATCC 29521^T
[14] = mix-cultured with Bifidobacterium bifidum NITE BP-1252
[15] = mix-cultured with Bifidobacterium bifidum NITE BP-02429
[16] = mix-cultured with Bifidobacterium bifidum NITE BP-02431
[17] = mix-cultured with Bifidobacterium bifidum NITE BP-02432
[18] = mix-cultured with Bifidobacterium bifidum NITE BP-02433
[19] = mix-cultured with Bifidobacterium bifidum NITE P-02648

| Compound | OD650 increase value [1] | OD650 increase value [2] | OD650 increase value [3] | OD650 increase value [4] | OD650 increase value [5] | OD650 increase value [6] | OD650 increase value [7] | Proliferation rate (number of bacteria after mix-culturing for 8 h/number of bacteria after single bacterial culturing) [8] | Proliferation rate of BB536 (mix-cultured bacteria after 8 h/single bacterial culturing 8 h) [8, 13] | Proliferation rate of BB536 (mix-cultured bacteria after 8 h/single bacterial culturing 8 h) [8, 14] | Proliferation rate of BB536 (mix-cultured bacteria after 8 h/single bacterial culturing 8 h) [8, 15] | Proliferation rate of BB536 (mix-cultured bacteria after 8 h/single bacterial culturing 8 h) [8, 16] | Proliferation rate of BB536 (mix-cultured bacteria after 8 h/single bacterial culturing 8 h) [8, 17] | Proliferation rate of BB536 (mix-cultured bacteria after 8 h/single bacterial culturing 8 h) [8, 18] | Proliferation rate of BB536 (mix-cultured bacteria after 8 h/single bacterial culturing 8 h) [8, 19] | proliferation of BB536 through mix-culturing with bacteria belonging to Bifidobacterium bifidum [8] | Proliferation rate (number of bacteria after mix-culturing for 8 h/number of bacteria after single bacterial culturing) [9] | Proliferation rate (number of bacteria after mix-culturing for 8 h/number of bacteria after single bacterial culturing) [10] | OD650 increase value [11] | OD650 increase value [12] |
| --- | --- | --- | --- | --- | --- | --- | --- | --- | --- | --- | --- | --- | --- | --- | --- | --- | --- | --- | --- | --- |
| 2′-fucosyllactose [2′-FL] | −0.01 | 0.027 | 0.041 | 0.344 | 0.029 | 0.022 | 0.058 | 4.30 | 1.35 | 3.17 | 4.13 | 6.33 | 3.16 | 5.90 | 9.97 | proliferates | 1.76 | 2.69 |  |  |
| CC(=O)N[C@H]1[C@H](O[C@H]2[C@@H](O)[C@@H](CO)O[C@@H](O[C@H]3[C@H](O)[C@@H](O)C(O)O[C@@H]3CO)[C@@H]2O)O[C@H](CO)[C@@H](O[C@@H]2O[C@H](CO)[C@H](O)[C@H](O)[C@H]2O)[C@@H]1O (mixture of isomers) [LNnT, lacto-N-neotetraose] |  |  |  |  |  |  |  | 2.13 | 1.07 | 1.64 | 3.57 | 3.02 | 1.51 | 3.08 | 4.95 | proliferates | 2.58 | 5.03 | 0.096 | 0.053 |
